Assay results reported in patent US20110312984A1, “STAT3 INHIBITORS” (priority 2008, published 2011).

System: triple negative human breast cancer xenograft
Assay: Triple-negative human breast cancer xenograft, MSFE after two days of treatment
Assay type: in vivo, SCID Beige mice
Conditions: 250 mcg, n=3, P<0.05
Excerpt: A tumor line derived from a “triple negative” (ER-negative, PgR-negative, and HER-2 negative) human breast cancer biopsy specimen was transplanted into immunocompromised SCID Beige mice. The animals (n=3) received two doses of vehicle control, 2 different doses of Cpd 188 (125 or 250 mcg), a G-quartet oligodeoxynucleotide (GQ-ODN, T40214; GQ-I) previously determined to target Stat3 (Jing et al., 2004) and a control non-specific ODN (GQ-II) each at two doses (125 or 250 mcg). The animals were sacrificed after only two days of treatment, and MSFE determined.
Xenograft assays. One can use two xenografts developed from human breast cancer biopsies that express activated p-Stat3 by IHC. From these established xenograft lines, for each of the top 5 inhibitors, the following studies may be undertaken: a) short term experiments with stem cell inhibitors at two doses vs. vehicle control and b) the optimal dose of the combination of chemotherapy with each of the five stem cell inhibitors.
a) Short term (2-day) experiments: One can test the five inhibitors at 2 doses. […]
b) Long-term (2-week studies) experiments: One can assess the effect of the self-renewal inhibitor on tumor growth and stem cell behavior. […] Size of the xenografts is monitored longitudinally by caliper measurement using the RECIST criteria for assessment of tumor response. […]

For `O=C(O)CSc1cc(NS(=O)(=O)c2ccc(C(=O)O)cc2)c2ccccc2c1O` [Cpd188, 4-[({3-[(carboxymethyl)thio]-4-hydroxy-1-naphthyl}amino)sulfonyl]benzoic acid], which “reduction in MSFE compared to control” value is on record?
Its value is “significant reduction”.
